Patent publication US20110045101A1, “FUNGICIDAL SUBSTITUTED AZOLES” (E.I. Du Pont De Nemours and Company, priority 2009, published 2011)

What was measured:
Septoria tritici = experiment: Test G: wheat leaf blotch on wheat seedlings, sprayed the day before inoculation, visual disease rating; format: in vivo; conditions: Zymoseptoria tritici, 504 h; 200 ppm; 100 = 100% disease control, 0 = no control relative to controls
In short: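 Visual disease ratings taken 19 days after transfer to a 20° C growth chamber, following 48 h in saturated atmosphere at 24° C. Seedlings had been sprayed to run-off one day before spore inoculation. Dose 200 ppm, or 40 ppm where starred.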

Rhizoctonia solani = experiment: Test B: turf brown patch on bentgrass seedlings, sprayed the day before inoculation, visual disease rating; format: in vivo; conditions: 200 ppm; 100 = 100% disease control, 0 = no control relative to controls
Excerpt: General protocol for preparing test suspensions for Tests A-J: The test compounds were first dissolved in acetone in an amount equal to 3% of the final volume and then suspended at the desired concentration (in ppm) in acetone and purified water (50/50 mix) containing 250 ppm of the surfactant Trem® 014 (polyhydric alcohol esters). The resulting test suspensions were then used in tests A-J. Spraying a 200 ppm test suspension to the point of run-off on the test plants was the equivalent of a rate of 500 g/ha. […] The test suspension was sprayed to the point of run-off on bentgrass (Agrostis sp.) seedlings. […] A dash (-) indicates no test results. All results are for 200 ppm except where followed by “*”, which indicates 40 ppm.

Alternaria solani = experiment: Test D: tomato early blight, sprayed the day before inoculation, visual disease rating; format: in vivo; conditions: Alternaria solani, 168 h; 200 ppm; 100 = 100% disease control, 0 = no control relative to controls
In short: (§1)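 200 ppm run-off spray (500 g/ha equivalent); * = 40 ppm. Vehicle: acetone/water 50/50, 250 ppm Trem® 014.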

Plasmopara viticola = experiment: Test A: grape downy mildew, test suspension sprayed after inoculation of grape seedlings, visual disease rating; format: in vivo; conditions: 200 ppm; 100 = 100% disease control, 0 = no control relative to controls
Excerpt: General protocol for preparing test suspensions for Tests A-J: The test compounds were first dissolved in acetone in an amount equal to 3% of the final volume and then suspended at the desired concentration (in ppm) in acetone and purified water (50/50 mix) containing 250 ppm of the surfactant Trem® 014 (polyhydric alcohol esters). The resulting test suspensions were then used in tests A-J. Spraying a 200 ppm test suspension to the point of run-off on the test plants was the equivalent of a rate of 500 g/ha. […] Grape seedlings were inoculated with a spore suspension of Plasmopara viticola (the causal agent of grape downy mildew) and incubated in a saturated atmosphere at 20° C. for 24 h. After a short drying period, the grape seedlings were sprayed with the test suspension to the point of run-off and then moved to a growth chamber at 20° C. for 5 days, after which time the grape seedlings were placed back into a saturated atmosphere at 20° C. for 24 h. Upon removal, visual disease ratings were made. […] A dash (-) indicates no test results.

[1] = system: Puccinia recondita f. sp. tritici; experiment: Test I: wheat leaf rust on wheat seedlings, sprayed the day before inoculation, visual disease rating; format: in vivo; conditions: Puccinia recondita, 168 h; 200 ppm; 100 = 100% disease control, 0 = no control relative to controls
In short: as §1

Phytophthora infestans = format: in vivo; conditions: 200 ppm; 100 = 100% disease control, 0 = no control relative to controls
Botrytis cinerea = experiment: Test C: tomato Botrytis on tomato seedlings, sprayed the day before inoculation, visual disease rating; format: in vivo; conditions: Botrytis cinerea, 120 h; 200 ppm; 100 = 100% disease control, 0 = no control relative to controls
In short: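 Tomato seedlings were sprayed until run-off with test suspensions in acetone/water (50/50) carrying 250 ppm polyhydric alcohol ester surfactant. Standard dose was 200 ppm, with 40 ppm for marked entries.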

Septoria nodorum = experiment: Test F: wheat glume blotch on wheat seedlings, sprayed the day before inoculation, visual disease rating; format: in vivo; conditions: Parastagonospora nodorum, 264 h; 200 ppm; 100 = 100% disease control, 0 = no control relative to controls
In short: as §1

[2] = system: Erysiphe graminis f. sp. tritici; experiment: Test J: wheat powdery mildew on wheat seedlings, sprayed the day before inoculation, visual disease rating; format: in vivo; conditions: Blumeria graminis, 168 h; 200 ppm; 100 = 100% disease control, 0 = no control relative to controls
In short: as §1

**Q.** What does the source list for `Fc1cc(F)c(-c2c(Cl)nc(Cl)n2-c2ccc(Cl)cc2)c(F)c1` [Compound 6, 2,4-dichloro-1-(4-chlorophenyl)-5-(2,4,6-trifluorophenyl)-1H-imidazole]?
**A.** pest or weed control at 200 ppm (Septoria tritici): 100%; Test B disease control rating (Rhizoctonia solani): 99%; pest or weed control at 200 ppm (Alternaria solani): 100%; Test A disease control rating (Plasmopara viticola): 0%; pest or weed control at 200 ppm [1]: 100%; Test E disease control rating (Phytophthora infestans): 0%; pest or weed control at 200 ppm (Botrytis cinerea): 99%; melting point: 112 to 119 °C; pest or weed control at 200 ppm (Septoria nodorum): 95%; pest or weed control at 200 ppm [2]: 100%
